The values below come from patent US8114991B2, “Amino-1,3,5-triazines N-substituted with chiral bicyclic radicals, process for their preparation, compositions thereof, and their use as herbicides and plant growth regulators” (Bayer Cropscience AG, priority 2003, dated 2012).

Test [1] deals with harmful plants such as Stellaria media, Lolium multiforum, Amaranthus retroflexus, Sinapis alba, Avena sativa and Setaria viridis. Description: Pre-emergence effect on weeds (greenhouse pot test). Type of test: in vivo. Conditions: application rate of 1 kg or less of active ingredient per hectare; scored after 3 to 4 weeks by comparison with untreated controls. An excerpt: Seeds or rhizome pieces of monocotyledonous and dicotyledonous weed plants were placed in sandy loam in plastic pots and covered with soil. The compounds according to the invention, which were formulated in the form of wettable powders or emulsion concentrates, were then applied to the surface of the soil cover as aqueous suspension or emulsion at various dosages with an application rate of 600 to 800 l of water per ha (converted).
After the treatment, the pots were placed into a greenhouse and kept under good growth conditions for the weeds. The plant or emergence damage was scored visually after the test plants have emerged after an experimental time of 3 to 4 weeks by comparison with untreated controls.

Test [2] has as its system harmful plants such as Sinapis alba, Echinochloa crus-galli, Lolium multiflorum, Stellaria media, Cyperus iria, Amaranthus retroflexus, Setaria viridis, Avena …. Put plainly: Post-emergence effect on weeds (greenhouse pot test). Type of test: in vivo. Conditions: application rate of 2 kg or less of active ingredient per hectare; treated in the three-leaf stage; scored after approx. 3 to 4 weeks by comparison with untreated controls.

`Cc1ccc2c(c1)[C@H](Nc1nc(N)nc([C@@H](C)F)n1)CCO2` [Compound 1.21]: the “pre-emergence control of harmful plants (plant or emergence damage scored visually)” value (shortened to “pre-emergence control of harmful plants”) in test [1] was “very good pre-emergence control”. For the same compound, the “herbicidal post-emergence activity against harmful plants (scored visually)” value (shortened to “herbicidal post-emergence activity”) in test [2] was “very good herbicidal post-emergence activity”.

Turning to `C[C@@H](Cl)c1nc(N)nc(N[C@@H]2CCc3ccccc32)n1` [Compound 1.24], the “pre-emergence control of harmful plants” value in test [1] is reported as “very good pre-emergence control”. The “herbicidal post-emergence activity” value in test [2] was “very good herbicidal post-emergence activity”.

For the compound `C[C@@H](Cl)c1nc(N)nc(N[C@@H]2CCCc3ccccc32)n1` [Compound 1.28], in test [1], the “pre-emergence control of harmful plants” value is on record as “very good pre-emergence control”. For the same compound, in test [2], the “herbicidal post-emergence activity” value is reported as “very good herbicidal post-emergence activity”.

Take `C[C@@H](Cl)c1nc(N)nc(N[C@@H]2CCOc3ccccc32)n1` [Compound 1.31]: the “pre-emergence control of harmful plants” value in test [1] was “very good pre-emergence control”. Further, the “herbicidal post-emergence activity” value in test [2] is “very good herbicidal post-emergence activity”.

For the compound `Cc1ccc2c(c1C)OCC[C@H]2Nc1nc(N)nc([C@@H](C)F)n1` [Compound 1.66], the “pre-emergence control of harmful plants” value in test [1] was “very good pre-emergence control”. Further, the “herbicidal post-emergence activity” value in test [2] is “very good herbicidal post-emergence activity”.

Regarding `C[C@@H](F)c1nc(N)nc(N[C@@H]2CCOc3c(F)cccc32)n1` [Compound 1.67], the “pre-emergence control of harmful plants” value in test [1] was “very good pre-emergence control”. Moreover, the “herbicidal post-emergence activity” value in test [2] is given as “very good herbicidal post-emergence activity”.

Regarding `CCc1ccc2c(c1)[C@H](Nc1nc(N)nc([C@@H](C)F)n1)CC2` [Compound 1.68], the “pre-emergence control of harmful plants” value in test [1] is given as “very good pre-emergence control”. For the same compound, in test [2], the “herbicidal post-emergence activity” value is “very good herbicidal post-emergence activity”.

As for `COc1ccc2c(c1)[C@H](Nc1nc(N)nc([C@@H](C)F)n1)CC2` [Compound 1.69], in test [1], the “pre-emergence control of harmful plants” value is “very good pre-emergence control”. Moreover, the “herbicidal post-emergence activity” value in test [2] was “very good herbicidal post-emergence activity”.

With `Cc1ccc2c(c1)[C@H](Nc1nc(N)nc([C@@H](C)F)n1)[C@@H](C)C2` [Compound 2.2], the “pre-emergence control of harmful plants” value in test [1] was “very good pre-emergence control”. In test [2], the “herbicidal post-emergence activity” value is recorded as “very good herbicidal post-emergence activity”.

Take `C[C@@H](F)c1nc(N)nc(N[C@H]2c3cc(Cl)ccc3C[C@@H]2C)n1` [Compound 2.4]: in test [1], the “pre-emergence control of harmful plants” value was “very good pre-emergence control”. Further, the “herbicidal post-emergence activity” value in test [2] is “very good herbicidal post-emergence activity”.

For the compound `C[C@@H](F)c1nc(N)nc(N[C@H]2c3ccccc3CC[C@@H]2C)n1` [Compound 2.11], the “pre-emergence control of harmful plants” value in test [1] is “very good pre-emergence control”. In test [2], the “herbicidal post-emergence activity” value was “very good herbicidal post-emergence activity”.

As for `Cc1ccc2c(c1)[C@H](Nc1nc(N)nc([C@@H](C)Cl)n1)[C@@H](C)C2` [Compound 2.25], in test [1], the “pre-emergence control of harmful plants” value was “very good pre-emergence control”. In test [2], the “herbicidal post-emergence activity” value is “very good herbicidal post-emergence activity”.

For the compound `Cc1ccc2c(c1)[C@H](Nc1nc(N)nc([C@@H](C)Cl)n1)[C@@H](C)CC2` [Compound 2.28], the “pre-emergence control of harmful plants” value in test [1] is recorded as “very good pre-emergence control”. Besides, in test [2], the “herbicidal post-emergence activity” value is “very good herbicidal post-emergence activity”.
